Laboratory results from patent publication US20170333591A9, “ABSORBENT ARTICLE COMPRISING MALODOR REDUCTION COMPOSITIONS” (The Procter & Gamble Company, priority 2014, published 2017).

Test: Log of liquid dish neat product liquid-air partition coefficient
Type: physicochemical
Settings: not given

SMILES	Comment Code: Log of liquid dish neat product liquid-air partition coefficient
CCC(C)C(=O)N(C)c1ccccc1 (stereo not shown) [Material 314]	K (Log of liquid dish neat product liquid-air partition coefficient greater than or equal to 7)
CC1=C2CC(C(C)(C)O)CCC2(C)CCC1 (stereo not shown) [Material 329]	K (Log of liquid dish neat product liquid-air partition coefficient greater than or equal to 7)
CC1COCc2cc3c(cc21)C(C)(C)C(C)C3(C)C (stereo not shown) [Material 335]	K (Log of liquid dish neat product liquid-air partition coefficient greater than or equal to 7)
CCC(=O)OC1CC2C3C=CCC3C1C2(C)C (stereo not shown) [Material 343]	K (Log of liquid dish neat product liquid-air partition coefficient greater than or equal to 7)
C/C=C1/CC2CC1C1CCC(=O)OC21 (stereo not shown) [Material 353]	K (Log of liquid dish neat product liquid-air partition coefficient greater than or equal to 7)
CCc1ccccc1CC(C)(C)C=O [Material 354]	K (Log of liquid dish neat product liquid-air partition coefficient greater than or equal to 7)
CCOC(=O)OC1CCCCC1C(C)(C)C (stereo not shown) [Material 355]	K (Log of liquid dish neat product liquid-air partition coefficient greater than or equal to 7)
CC(O)C(C)/C=C1\C[C@H]2C[C@@H]1[C@@H]1C=CC[C@H]21 (stereo partly shown) [Material 359]	K (Log of liquid dish neat product liquid-air partition coefficient greater than or equal to 7)
CC(=O)OC1CC2C3C=CCC3C1C2(C)C (stereo not shown) [Material 360]	K (Log of liquid dish neat product liquid-air partition coefficient greater than or equal to 7)

Same assay, conditions: code letter within the Comment Code cell

SMILES	Log of liquid dish neat product liquid-air partition coefficient (Comment Code K/L)
CC(=O)OC1(C)CCC(=C(C)C)CC1 (stereo not shown) [Material 317]	K (Log of liquid dish neat product liquid-air partition coefficient greater than or equal to 7)
CC(C)=C1CCC(C)(O)CC1 (stereo not shown) [Material 318]	K (Log of liquid dish neat product liquid-air partition coefficient greater than or equal to 7)
C=C1CCCC(C)(C)C1C=CC(C)=O (stereo not shown) [Material 324]	K (Log of liquid dish neat product liquid-air partition coefficient greater than or equal to 7)
CC1=C2CC(C(C)(C)O)CCC2(C)CCC1 (stereo not shown) [Material 329]	K (Log of liquid dish neat product liquid-air partition coefficient greater than or equal to 7)
CCCCCCCCC1CCC(=O)O1 (stereo not shown) [Material 330]	K (Log of liquid dish neat product liquid-air partition coefficient greater than or equal to 7)
C=C1CCCC(C)(C)C1C(=O)C=CC (stereo not shown) [Material 331]	K (Log of liquid dish neat product liquid-air partition coefficient greater than or equal to 7)
C=CCCC(=O)C1CCCC(C)(C)C1 (stereo not shown) [Material 334]	K (Log of liquid dish neat product liquid-air partition coefficient greater than or equal to 7)
CC1COCc2cc3c(cc21)C(C)(C)C(C)C3(C)C (stereo not shown) [Material 335]	K (Log of liquid dish neat product liquid-air partition coefficient greater than or equal to 7)
CCCCCCCC(=O)OCc1ccco1 [Material 336]	K (Log of liquid dish neat product liquid-air partition coefficient greater than or equal to 7)
CCCCCC(=O)OCc1ccco1 [Material 338]	K (Log of liquid dish neat product liquid-air partition coefficient greater than or equal to 7)
CCCCCCC(=O)OCc1ccco1 [Material 339]	K (Log of liquid dish neat product liquid-air partition coefficient greater than or equal to 7)
CCC(=O)OC1CC2C3C=CCC3C1C2(C)C (stereo not shown) [Material 343]	K (Log of liquid dish neat product liquid-air partition coefficient greater than or equal to 7)
CCOC(=O)C12CCCC1C1CCC2C1 (stereo not shown) [Material 344]	K (Log of liquid dish neat product liquid-air partition coefficient greater than or equal to 7)
CCOC(=O)C1CCC(C(=O)OCC)CC1 (stereo not shown) [Material 347]	K (Log of liquid dish neat product liquid-air partition coefficient greater than or equal to 7)
CC(C)CC1CC(C)(O)CCO1 (stereo not shown) [Material 350]	K (Log of liquid dish neat product liquid-air partition coefficient greater than or equal to 7)
C=CCCCCCCCCC#N [Material 352]	K (Log of liquid dish neat product liquid-air partition coefficient greater than or equal to 7)

SMILES	Log of liquid dish neat product liquid-air partition coefficient (Comment Code K/L)
C/C=C1/CC2CC1C1CCC(=O)OC21 (stereo not shown) [Material 353]	K (Log of liquid dish neat product liquid-air partition coefficient greater than or equal to 7)
CCc1ccccc1CC(C)(C)C=O [Material 356]	K (Log of liquid dish neat product liquid-air partition coefficient greater than or equal to 7)
CC(O)C(C)/C=C1\C[C@H]2C[C@@H]1[C@@H]1C=CC[C@H]21 (stereo partly shown) [Material 359]	K (Log of liquid dish neat product liquid-air partition coefficient greater than or equal to 7)
CC(=O)OC1CC2C3C=CCC3C1C2(C)C (stereo not shown) [Material 360]	K (Log of liquid dish neat product liquid-air partition coefficient greater than or equal to 7)
CCc1ccc(CC(C)(C)C#N)cc1 [Material 361]	K (Log of liquid dish neat product liquid-air partition coefficient greater than or equal to 7)
CCOC(C)OC1CCCCCCCCCCC1 (stereo not shown) [Material 363]	K (Log of liquid dish neat product liquid-air partition coefficient greater than or equal to 7)
CC(=O)OCC=C(C)CCC=C(C)CCC=C(C)C [Material 368]	K (Log of liquid dish neat product liquid-air partition coefficient greater than or equal to 7)
CC(C)=CCCC(C)=CCCC(C)=CCO [Material 369]	K (Log of liquid dish neat product liquid-air partition coefficient greater than or equal to 7)
O=C1CCCCCCCCCCCCCCO1 [Material 370]	K (Log of liquid dish neat product liquid-air partition coefficient greater than or equal to 7)
O=C1CCC=CCCCCCCCCCC1 [Material 371]	K (Log of liquid dish neat product liquid-air partition coefficient greater than or equal to 7)
O=C1CCC=CCCCCCCCCCC1 [Material 372]	K (Log of liquid dish neat product liquid-air partition coefficient greater than or equal to 7)
C=CCc1ccc(OC(C)=O)c(OC)c1 [Material 374]	K (Log of liquid dish neat product liquid-air partition coefficient greater than or equal to 7)
C=CCc1ccc(O)c(OC)c1 [Material 375]	K (Log of liquid dish neat product liquid-air partition coefficient greater than or equal to 7)
CCOC(=O)C1OC1(C)c1ccccc1 (stereo not shown) [Material 377]	K (Log of liquid dish neat product liquid-air partition coefficient greater than or equal to 7)
C=CCCCCCCCCC(=O)OCC [Material 381]	K (Log of liquid dish neat product liquid-air partition coefficient greater than or equal to 7)
